Results reported in PubChem BioAssay (NCI).
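Method: 48-hour compound exposure of cells in 96-well plates, five concentrations, linear interpolation of endpoints. TGI marks complete inhibition of growth.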

What was measured:
Experiment in all cases: NCI anticancer screen, dose series, 48 h
SW-620 colon = tested on: SW-620 colon
MALME-3M melanoma = tested on: MALME-3M melanoma
DMS 114 small cell lung = tested on: DMS 114 small cell lung
SNB-75 CNS = tested on: SNB-75 CNS
SK-MEL-2 melanoma = tested on: SK-MEL-2 melanoma
SNB-19 CNS = tested on: SNB-19 CNS
SK-OV-3 ovarian = tested on: SK-OV-3 ovarian
OVCAR-4 ovarian = tested on: OVCAR-4 ovarian
KM20L2 colon = tested on: KM20L2 colon
M14 melanoma = tested on: M14 melanoma
NCI-H23 lung = tested on: NCI-H23 lung
HOP-18 NSCLC = tested on: HOP-18 NSCLC
COLO 205 colon = tested on: COLO 205 colon
UACC-257 melanoma = tested on: UACC-257 melanoma
MOLT-4 leukemia = tested on: MOLT-4 leukemia
SK-MEL-28 melanoma = tested on: SK-MEL-28 melanoma
LXFL 529 NSCLC = tested on: LXFL 529 NSCLC
EKVX NSCLC = tested on: EKVX NSCLC
786-0 renal = tested on: 786-0 renal
NCI-H522 lung = tested on: NCI-H522 lung
DMS 273 small cell lung = tested on: DMS 273 small cell lung
SK-MEL-5 melanoma = tested on: SK-MEL-5 melanoma
HT29 colon = tested on: HT29 colon
RPMI-8226 leukemia = tested on: RPMI-8226 leukemia
HL-60(TB) leukemia = tested on: HL-60(TB) leukemia
TK-10 renal = tested on: TK-10 renal
U251 CNS = tested on: U251 CNS
A549 NSCLC = tested on: A549 NSCLC
M19-MEL melanoma = tested on: M19-MEL melanoma
ACHN renal = tested on: ACHN renal
LOX IMVI melanoma = tested on: LOX IMVI melanoma
UO-31 renal = tested on: UO-31 renal
SNB-78 CNS = tested on: SNB-78 CNS
XF 498 CNS = tested on: XF 498 CNS
NCI-H226 lung = tested on: NCI-H226 lung
HCT-116 colon = tested on: HCT-116 colon
SF-295 CNS = tested on: SF-295 CNS
HCT-15 colon = tested on: HCT-15 colon
K-562 leukemia = tested on: K-562 leukemia
KM12 colon = tested on: KM12 colon
UACC-62 melanoma = tested on: UACC-62 melanoma
SN12C renal = tested on: SN12C renal
RXF 393 renal = tested on: RXF 393 renal
SF-268 CNS = tested on: SF-268 CNS
SR leukemia = tested on: SR leukemia
OVCAR-8 ovarian = tested on: OVCAR-8 ovarian
CCRF-CEM leukemia = tested on: CCRF-CEM leukemia
HOP-62 NSCLC = tested on: HOP-62 NSCLC
NCI-H460 lung = tested on: NCI-H460 lung
OVCAR-5 ovarian = tested on: OVCAR-5 ovarian
HOP-92 NSCLC = tested on: HOP-92 NSCLC
CAKI-1 renal = tested on: CAKI-1 renal
A498 renal = tested on: A498 renal
IGROV1 ovarian = tested on: IGROV1 ovarian
OVCAR-3 ovarian = tested on: OVCAR-3 ovarian
HCC-2998 colon = tested on: HCC-2998 colon
SF-539 CNS = tested on: SF-539 CNS
DLD-1 colon = tested on: DLD-1 colon
RXF-631 renal = tested on: RXF-631 renal

In the case of O=C(CSc1nnc(-c2ccc(N=Cc3ccc(Cl)cc3)cc2)o1)Nc1ccc(Cl)cc1, the TGI (SW-620 colon) was greater than 100 µM, the TGI (MALME-3M melanoma) was greater than 100 µM and the TGI (DMS 114 small cell lung) was greater than 100 µM. The TGI (SNB-75 CNS) was greater than 100 µM, the TGI (SK-MEL-2 melanoma) was greater than 100 µM and the TGI (SNB-19 CNS) was greater than 100 µM. For the same compound, the TGI (SK-OV-3 ovarian) was greater than 100 µM, the TGI (OVCAR-4 ovarian) was greater than 100 µM and the TGI (KM20L2 colon) was greater than 100 µM. It also gave a TGI (M14 melanoma) greater than 100 µM, a TGI (NCI-H23 lung) greater than 100 µM and a TGI (HOP-18 NSCLC) greater than 100 µM. For the same compound, the TGI (COLO 205 colon) was greater than 100 µM, the TGI (UACC-257 melanoma) was greater than 100 µM and the TGI (MOLT-4 leukemia) was greater than 100 µM. It also gave a TGI (SK-MEL-28 melanoma) greater than 100 µM, a TGI (LXFL 529 NSCLC) greater than 100 µM and a TGI (EKVX NSCLC) greater than 100 µM. It also gave a TGI (786-0 renal) greater than 100 µM, a TGI (NCI-H522 lung) greater than 100 µM and a TGI (DMS 273 small cell lung) greater than 100 µM. It also gave a TGI (SK-MEL-5 melanoma) greater than 100 µM, a TGI (HT29 colon) greater than 100 µM and a TGI (RPMI-8226 leukemia) greater than 100 µM. It also gave a TGI (HL-60(TB) leukemia) greater than 100 µM, a TGI (TK-10 renal) greater than 100 µM and a TGI (U251 CNS) greater than 100 µM. It also gave a TGI (A549 NSCLC) greater than 100 µM, a TGI (M19-MEL melanoma) greater than 100 µM and a TGI (ACHN renal) greater than 100 µM. The TGI (LOX IMVI melanoma) was greater than 100 µM, the TGI (UO-31 renal) was greater than 100 µM and the TGI (SNB-78 CNS) was greater than 100 µM. The TGI (XF 498 CNS) was greater than 100 µM, the TGI (NCI-H226 lung) was greater than 100 µM and the TGI (HCT-116 colon) was greater than 100 µM. The TGI (SF-295 CNS) was greater than 100 µM, the TGI (HCT-15 colon) was greater than 100 µM and the TGI (K-562 leukemia) was greater than 100 µM. For the same compound, the TGI (KM12 colon) was greater than 100 µM, the TGI (UACC-62 melanoma) was greater than 100 µM and the TGI (SN12C renal) was greater than 100 µM. For the same compound, the TGI (RXF 393 renal) was greater than 100 µM, the TGI (SF-268 CNS) was greater than 100 µM and the TGI (SR leukemia) was greater than 100 µM. For the same compound, the TGI (OVCAR-8 ovarian) was greater than 100 µM, the TGI (CCRF-CEM leukemia) was greater than 100 µM and the TGI (HOP-62 NSCLC) was greater than 100 µM. The TGI (NCI-H460 lung) was greater than 100 µM.

In the case of Cc1cccc(C(C)C)c1NC(=O)CC1Sc2ccccc2NC1=O (configuration not stated), the TGI (SW-620 colon) was greater than 100 µM, the TGI (OVCAR-5 ovarian) was greater than 100 µM and the TGI (MALME-3M melanoma) was 94.2 µM. The TGI (HOP-92 NSCLC) was greater than 100 µM, the TGI (DMS 114 small cell lung) was 85 µM and the TGI (SNB-75 CNS) was greater than 100 µM. It also gave a TGI (SK-MEL-2 melanoma) greater than 100 µM, a TGI (SNB-19 CNS) greater than 100 µM and a TGI (SK-OV-3 ovarian) greater than 100 µM. For the same compound, the TGI (OVCAR-4 ovarian) was greater than 100 µM, the TGI (KM20L2 colon) was greater than 100 µM and the TGI (M14 melanoma) was greater than 100 µM. The TGI (NCI-H23 lung) was greater than 100 µM, the TGI (HOP-18 NSCLC) was greater than 100 µM and the TGI (COLO 205 colon) was greater than 100 µM. It also gave a TGI (UACC-257 melanoma) greater than 100 µM, a TGI (MOLT-4 leukemia) greater than 100 µM and a TGI (SK-MEL-28 melanoma) greater than 100 µM. For the same compound, the TGI (LXFL 529 NSCLC) was greater than 100 µM, the TGI (CAKI-1 renal) was greater than 100 µM and the TGI (EKVX NSCLC) was greater than 100 µM. The TGI (NCI-H522 lung) was greater than 100 µM, the TGI (DMS 273 small cell lung) was greater than 100 µM and the TGI (SK-MEL-5 melanoma) was greater than 100 µM. For the same compound, the TGI (HT29 colon) was greater than 100 µM, the TGI (RPMI-8226 leukemia) was greater than 100 µM and the TGI (A498 renal) was greater than 100 µM. The TGI (HL-60(TB) leukemia) was greater than 100 µM, the TGI (TK-10 renal) was greater than 100 µM and the TGI (U251 CNS) was greater than 100 µM. For the same compound, the TGI (A549 NSCLC) was greater than 100 µM, the TGI (ACHN renal) was greater than 100 µM and the TGI (LOX IMVI melanoma) was greater than 100 µM. For the same compound, the TGI (UO-31 renal) was greater than 100 µM, the TGI (XF 498 CNS) was greater than 100 µM and the TGI (NCI-H226 lung) was greater than 100 µM. For the same compound, the TGI (HCT-116 colon) was greater than 100 µM, the TGI (SF-295 CNS) was greater than 100 µM and the TGI (HCT-15 colon) was greater than 100 µM. For the same compound, the TGI (K-562 leukemia) was greater than 100 µM, the TGI (IGROV1 ovarian) was greater than 100 µM and the TGI (KM12 colon) was greater than 100 µM. For the same compound, the TGI (OVCAR-3 ovarian) was greater than 100 µM, the TGI (UACC-62 melanoma) was greater than 100 µM and the TGI (SN12C renal) was greater than 100 µM. It also gave a TGI (HCC-2998 colon) greater than 100 µM, a TGI (SF-539 CNS) greater than 100 µM and a TGI (RXF 393 renal) greater than 100 µM. It also gave a TGI (SF-268 CNS) greater than 100 µM, a TGI (SR leukemia) greater than 100 µM and a TGI (OVCAR-8 ovarian) greater than 100 µM. It also gave a TGI (DLD-1 colon) greater than 100 µM, a TGI (CCRF-CEM leukemia) greater than 100 µM and a TGI (RXF-631 renal) greater than 100 µM. The TGI (HOP-62 NSCLC) was greater than 100 µM and the TGI (NCI-H460 lung) was greater than 100 µM.

CC[C@@]12N=C(N(C)C)C[C@]1(O)ON=C2C showed a TGI (SW-620 colon) greater than 100 µM, a TGI (MALME-3M melanoma) greater than 100 µM and a TGI (HOP-92 NSCLC) greater than 100 µM. The TGI (DMS 114 small cell lung) was greater than 100 µM, the TGI (SNB-75 CNS) was greater than 100 µM and the TGI (SK-MEL-2 melanoma) was greater than 100 µM. For the same compound, the TGI (SNB-19 CNS) was greater than 100 µM, the TGI (SK-OV-3 ovarian) was greater than 100 µM and the TGI (OVCAR-4 ovarian) was greater than 100 µM. It also gave a TGI (KM20L2 colon) greater than 100 µM, a TGI (M14 melanoma) greater than 100 µM and a TGI (NCI-H23 lung) greater than 100 µM. It also gave a TGI (HOP-18 NSCLC) greater than 100 µM, a TGI (COLO 205 colon) greater than 100 µM and a TGI (MOLT-4 leukemia) greater than 100 µM. It also gave a TGI (SK-MEL-28 melanoma) greater than 100 µM, a TGI (LXFL 529 NSCLC) greater than 100 µM and a TGI (CAKI-1 renal) greater than 100 µM. The TGI (EKVX NSCLC) was greater than 100 µM, the TGI (786-0 renal) was greater than 100 µM and the TGI (NCI-H522 lung) was greater than 100 µM. The TGI (DMS 273 small cell lung) was greater than 100 µM, the TGI (SK-MEL-5 melanoma) was greater than 100 µM and the TGI (HT29 colon) was greater than 100 µM. For the same compound, the TGI (RPMI-8226 leukemia) was greater than 100 µM, the TGI (A498 renal) was greater than 100 µM and the TGI (HL-60(TB) leukemia) was greater than 100 µM. For the same compound, the TGI (TK-10 renal) was greater than 100 µM, the TGI (U251 CNS) was greater than 100 µM and the TGI (A549 NSCLC) was greater than 100 µM. The TGI (M19-MEL melanoma) was greater than 100 µM, the TGI (ACHN renal) was greater than 100 µM and the TGI (UO-31 renal) was greater than 100 µM. It also gave a TGI (XF 498 CNS) greater than 100 µM, a TGI (NCI-H226 lung) greater than 100 µM and a TGI (HCT-116 colon) greater than 100 µM. The TGI (SF-295 CNS) was greater than 100 µM, the TGI (HCT-15 colon) was greater than 100 µM and the TGI (K-562 leukemia) was greater than 100 µM. The TGI (IGROV1 ovarian) was greater than 100 µM, the TGI (KM12 colon) was greater than 100 µM and the TGI (OVCAR-3 ovarian) was greater than 100 µM. It also gave a TGI (SN12C renal) greater than 100 µM, a TGI (HCC-2998 colon) greater than 100 µM and a TGI (SF-539 CNS) greater than 100 µM. It also gave a TGI (RXF 393 renal) greater than 100 µM, a TGI (SF-268 CNS) greater than 100 µM and a TGI (SR leukemia) greater than 100 µM. It also gave a TGI (OVCAR-8 ovarian) greater than 100 µM, a TGI (DLD-1 colon) greater than 100 µM and a TGI (CCRF-CEM leukemia) greater than 100 µM. It also gave a TGI (NCI-H460 lung) greater than 100 µM.
